# From patent EP0969854B1, “INHIBITION OF SIGNAL TRANSDUCTION BY THE BINDING OF NON-PHOSPHORYLATED COMPOSITIONS” (GEORGETOWN UNIVERSITY, priority 1996, dated 2006)
# Bridge positions count the residues as written; N and C are the ends. Ends that are not written are not given here.
# How the values were obtained:
# cell proliferation = conditions: cited from earlier work
# Grb2 SH2 domain = test: Surface plasmon resonance (Biacore): inhibition of GST-Grb2 binding to immobilised SHC phosphopeptide; conditions: for inhibition of Grb2 binding to the SHC phosphopeptide: peptide at 50 µM; for inhibiting activity: peptide at 500 µM
# From the text: The G1 peptide (CELYENVGMYC [disulfide bonded]) was used as an inhibitor of the interaction of the Grb2 with a SHC phosphopeptide in surface plasmon resonance (Biacore) experiments. The SHC phosphopeptide was attached to the solid surface by incorporation of a biotin at the N-terminus as described in Pelicci, G., et al., "The motogenic and mitogenic responses to HGF are amplified by the Shc adaptor protein," Oncogene, 10: 1631-1638, 1995. This biotinylated phospho-SHC peptide was then bound to the streptavidin on the surface of SA5 chips (Pharmacia-Biacore). The binding was conducted at a 2nM and 5 µl/minute for 10 minutes. The peptides were mixed with 200 nM GST-Grb2 in HBS buffer (Pharmacia Biacore) and allowed to bind for 10 minutes at a flow rate of 5 µl/minute. The Ru change at equilibrium was calculated and the percent of control (no added peptide) binding was calculated.
# The G1 peptide was compared to SHC phosphopeptide (DDPSpYVNVQ), G1C-S (SELYENVGMYS), which is similar to G1 but wherein the cysteines are replaced with serines, and SHC control peptide (DDPSYVNVQ), in which the tyrosine is not phosphorated.
# Songyang et al. Mol. Cell Biol., 14:2777-2785 (1994). The requirement of these amino acids in the G1 peptide sequence was tested by synthesizing peptides with alanine substitutions at these positions. G1.4Y-A contains an alanine substitution in place of the tyrosine at position 4 (CELAENVGMYC) and G16N-A contains an alanine substitution for the asparagine at position 6 (CELYEAVGMYC). […] The binding of peptide to the Grb2 SH2 domain was measured by surface plasmon resonance (Pharmacia Biacore). The percent inhibition was calculated by comparison of the Rueq in the presence of peptide with the Rueq with no inhibiting peptide present.
# [1] = molecular target: intact GST-Grb2 fusion protein (UniProt P62993); test: SPR competition in solution, SHC phosphopeptide and G1 for GST-Grb2 compared directly (Figure 6)
Molecule,inhibition of Grb2 binding to the SHC phosphopeptide (Grb2 SH2 domain),inhibiting activity (Grb2 SH2 domain),fold difference in affinity against SHC phosphopeptide [1] [fold],block of cell proliferation (cell proliferation)
AcpYEEIE,,,,lack of effect
"CELAENVGMYC [G1.4Y-A, alanine substitution in place of the tyrosine at position 4]",No inhibition,limited activity,,

# More lines, main results first:
inhibition of Grb2 binding to the SHC phosphopeptide (Grb2 SH2 domain),inhibiting activity (Grb2 SH2 domain),fold difference in affinity against SHC phosphopeptide [1] [fold],Molecule,block of cell proliferation (cell proliferation)
No inhibition,limited activity,,"CELYEAVGMYC [G16N-A, alanine substitution for the asparagine at position 6]",
,,10,CELYENVGMYC (disulfide 1-11) [G1 peptide (… [disulfide bonded])],
